Test results published in patent US20170231931A1, “PRODUCTS FOR THE TREATMENT AND PREVENTION OF NEUROLOGICAL DISORDERS COURSING WITH A COGNITION DEFICIT OR IMPAIRMENT, AND OF NEURODEGENERATIVE DISEASES” (FUNDACIÓN PARA LA INVESTIGACIÓN MÉDICA APLICADA, priority 2014, published 2017).

Key:
Aβ42 = Aβ42 levels in hippocampal extracts of treated Tg2576 mice (sandwich ELISA); type: in vivo; details: Vorinostat 12.5 mg/Kg, Tadalafil 1 mg/Kg, mean ± standard deviation
Description: (§1) Amyloid and Tau pathology was analyzed in the hippocampus of treated animals. Hippocampus was weighed and homogenized in 8 mass of ice-cold buffer containing a cold lysis buffer with protease inhibitors (0.2 M NaCl, 0.1 M HEPES (4-(2-hydroxyethyl)-1-piperazineethanesulfonic acid), 10% glycerol, 200 mM NaF, 2 mM Na4P2O7, 5 mM EDTA (ethylenediaminetetraacetic acid), 1 mM EGTA (ethylene glycol tetraacetic acid), 2 mM DTT (dithiothreitol), 0.5 mM PMSF (phenylmethylsulfonyl fluoride), 1 mM Na3VO4 and Complete Protease Inhibitor Cocktail, Roche Diagnostics), centrifuged at 14,000×g 4° C. for 20 min and the supernatant was aliquoted and stored at −80° C. Total protein concentrations were determined using the BioRad Bradford protein assay (BioRad Laboratories).
Aβ42 levels in hippocampal extracts were measured with the 3D6 antibody (specific for amino acids 1-5 of Aβ; kit from Biosource, USA) using a sensitive sandwich ELISA kit from Biosource (Camarillo, Ca, USA) according to the manufacturer's instructions.

Tg2576 mice [1] = experiment: Morris water maze (MWM) test, memory retention in aged-Tg2576 mice; type: in vivo; details: Retention phase of MWM test, day 9th, Vorinostat 12.5 mg/Kg i.p., Tadalafil 1 mg/Kg p.o., mean ± standard deviation
Description: (§2) The effect on memory function of Vorinostat (12.5 mg/kg, i.p.), Tadalafil (1 mg/Kg p.o.) and the combination (Vorinostat, 12.5 mg/Kg+Tadalafil 1 mg/Kg) was studied in Tg2576 mice (14-16 month) after a chronic treatment of 2-5 weeks by using two different behavioral tasks: the Fear Conditioning (FC) and the Morris water maze (MWM) tests. Tg2576 mice express the human 695-aa isoform of APP (hAPP) containing the Swedish double mutation, which favours AP production.
(§3) The MWM and the revesal_MWM test was used to evaluate spatial memory as previously described (Ricobaraza et al., 2009; Neuropsychopharmacology, 34, 1721-1732 and Ricobaraza et al., 2011, Frontiers in bioscience, 3, 1375-84). After 3 weeks of treatments, groups of animals underwent spatial reference learning and memory testing in the MWM. The water maze was a circular pool (diameter 1.2 m) filled with water maintained at 20° C. and made opaque by the addition of non-toxic white paint. […] In the probe trials the platform was removed from the pool, and the percentage of time spent in the quadrant where the platform was previously set was recorded.
(§4) All trials were monitored by a camera above the center of the pool connected to a SMART-LD program (Panlab S.L., Barcelona, Spain) for subsequent analysis of escape latencies, swimming speed, path length and percent time spent in each quadrant of the pool during probe trials. […]

pTau = pTau in the hippocampus of treated Tg2576 mice (western blot); type: in vivo; details: Vorinostat 12.5 mg/Kg, Tadalafil 1 mg/Kg, mean ± standard deviation
Description: as §1
pTau was analyzed by western blot in the hippocampus of treated animals. […] Following two washes in TBS/Tween20 and one wash in TBS alone, immunolabelled protein bands were detected using HRP-conjugated anti-rabbit or anti-mouse antibodies (diluted 1:5,000 Santa Cruz). Binding was visualised by enhanced chemiluminescence (ECL, GE Healthcare Bioscience, Buckinghamshire, UK) and autoradiographic exposure to Hyperfilm ECL (GE Healthcare Bioscience), using Quantity One™ software v.4.6.3 (Bio-Rad) for quantification.

Tg2576 mice [2] = experiment: Fear Conditioning (FC) test, memory function in aged-Tg2576 mice; type: in vivo; details: Tg2576 mice (14-16 month), chronic treatment; Vorinostat 12.5 mg/kg i.p., Tadalafil 1 mg/kg p.o.; mean ± standard deviation
Description: as §2
The behavioural procedure of FC task involved three phases: habituation, training and testing. During habituation phase, mice were habituated to the conditioning box (context) for 5 min with no stimuli presented. 24 hours later (training phase), mice were placed in the training chamber and allowed to explore for 2 min, afterward, a footshock (0.3 mA) unconditioned stimulus was administered (2 s) and 30 s after mice were returned to their home cage.
Mice were returned to the conditioning chamber 24 h after training and allowed to explore the context for 2 min, during which freezing behavior was recorded (contextual long term memory). Freezing scores were expressed as percentages. The conditioning procedure was carried out in a StartFear system (Panlab S.L., Barcelona, Spain) that allows recording and analysis of the signal generated by the animal movement through a high sensitivity Weight Transducer system. […]

Tg2576 mice [3] = experiment: Reversal MWM after a 4-weeks wash-out period in aged-Tg2576 mice; type: in vivo; details: Retention phase of Reversal_MWM test, day 6th, after 4-weeks wash-out, Vorinostat 12.5 mg/Kg, Tadalafil 1 mg/Kg, mean ± standard deviation
Description: as §2
as §3, with “MWM.” for “MWM. The water maze was a circular pool (diameter 1.2 m) filled with water maintained at 20° C. and made opaque by the addition of non-toxic white paint.”
After a 4-weeks wash-out period of the drugs, a reversal phase of MWM was carried out. […] Memory retention was analyzed in a probe at day 6.
as §4

[4] = system: acetylated histone 3 at Lys9 (AcH3K9); experiment: HDAC activity in wild type neurons: Western blot of acetylated histone 3 (AcH3K9) in primary neuronal cultures; type: cell-based, mice; details: 2 h
Description: (§5) The cellular assay to determine HDAC activity was assessed by Western blot analysis using a specific antibody against acetylated histone 3 at Lys9 (AcH3K9, Cell Signalling).
Primary neuronal cultures derived from the hippocampus and cortex of embryonic day 16 of wild type mice were used. Tissue was triturated using glass pipettes until neurons were dissociated. Neurons were plated with serum-free neurobasal media with B27 supplement (Invitrogen, Gaithersburg, Md.) and 2 mM L-glutamine on poly-L-lysine-treated (0.1 mg/ml; Sigma) 35 mm dishes.
To determine the concentration-response curve effect of Vorinostat and Tadalafil, cell cultures of 15 days in vitro were treated at different concentrations (10, 100 and 500 nM) during 2 h (Table 5).
Thus, to determine if a synergistic effect on epigenetic mark (AcH3) exists when both compounds are combined, Vorinostat at 50 nM was combined with Tadalafil at different concentrations (12.5, 25, 50, 100 and 200 nM) during 2 h (Table 6).
as §1, with “Cells were collected” for “Amyloid and Tau pathology was analyzed”, “a” for “the hippocampus of treated animals. Hippocampus was weighed and homogenized in 8 mass of ice-cold”
Protein samples were mixed with Laemmli sample buffer, resolved onto SDS-polyacrylamide gels and transferred to nitrocellulose membrane. The membranes were blocked with 5% milk, 0.05% Tween-20 in PBS (Phosphate-Buffered Saline) or TBS (Tris-Buffered Saline) followed by overnight incubation with the following primary antibodies: rabbit polyclonal anti-acetylated Histone 3 (acetyl K9, Cell Signalling 1:1000), mouse monoclonal anti-actin (Sigma, 1:50000) in the corresponding buffer. Following two washes in TBS/Tween20 and one wash in TBS alone, immunolabeled protein bands were detected by using HRP-conjugated anti-rabbit or anti-mouse antibody (Santa Cruz; dilution 1:5000) following an enhanced chemiluminescence system (ECL, GE Healthcare Bioscience, Buckinghamshire, UK), and autoradiographic exposure to HyperfilmtECL (GE Healthcare Bioscience). Quantity One™ software v.4.6.3 (Bio-Rad) was used for quantification.

[5] = system: acetylated histone 3 at Lys9 (AcH3K9); experiment: HDAC activity in SHSY-5Y: Western blot of acetylated histone 3 (AcH3K9); type: cell-based, human; details: Vorinostat 10 nM alone, 2 hours, SHSY-5Y cell line
Description: as §5
A human neuroblastoma cell line (SHSY-5Y) was also used. Cell line was obtained from ATCC (CRL-2266) (Biedler et al., Cancer Research, 38, 3751-3757 1978) and cultured in 35 mm plates (Becton Dickinson, N.J.). The cells were grown to 90% confluence at 37° C. in an atmosphere of 5% CO2 and in Dulbecco's modified Eagle's medium supplemented with Glutamax (Gibco, Invitrogen, CA), 100 units/ml penicillin/streptomycin, 1× Minimum Essential Media (MEM) non essential amino acids and 10% fetal bovine serum (Gibco, Invitrogen, CA).
as §1, with “Cells were collected” for “Amyloid and Tau pathology was analyzed”, “a” for “the hippocampus of treated animals. Hippocampus was weighed and homogenized in 8 mass of ice-cold”, “Laboratories). […]” for “Laboratories).”

SMILES	Aβ42 levels in hippocampus (Aβ42)	MWM (% of time on right quadrant) (Tg2576 mice [1])	pTau/tTau in hippocampus (pTau)	FC (% freezing) (Tg2576 mice [2])	RMWM (% of time on right quadrant) (Tg2576 mice [3])	AcH3 increment vs basal (no treatment) ([4]; compound alone 10 nM)	AcH3 increment vs basal (no treatment) ([4]; compound alone 100 nM)	AcH3 increment vs basal (no treatment) ([4]; compound alone 500 nM)	AcH3 increment vs basal (no treatment) [5]	AcH3 increment vs basal (no treatment) ([4]; Vorinostat 50 nM alone)
CN1CC(=O)N2[C@H](c3ccc4c(c3)OCO4)c3[nH]c4ccccc4c3C[C@@H]2C1=O [Tadalafil, (6R,12aR)-6-(1,3-Benzodioxol-5-yl)-2-methyl-2,3,6,7,12,12a-hexahydropyrazino[1′,2′: 1,6]pyrido[3,4-b]indole-1,4-dione]	14.89 ± 5.17 pg/mg	23.3 ± 7.63%	0.32 ± 0.03	41.38 ± 12.3%	21.26 ± 3.40%	+ (basal ×1 means no increment (+))	+ (basal ×1 means no increment (+))	+ (basal ×1 means no increment (+))	–	–
O=C(CCCCCCC(=O)Nc1ccccc1)NO [Vorinostat, 8-(hydroxyamino)-8-oxo-N-phenyl-octanamide]	12.81 ± 4.68 pg/mg	16.3 ± 4.69%	0.56 ± 0.09	51.17 ± 14.8%	14.88 ± 5.88%	+ (basal ×1 means no increment (+))	++ (basal ×2≦(++))	++ (basal ×2≦(++))	+ (basal ×1 means no increment (+))	+ (basal ×1 means no increment (+))
